# Results: patent US20140308733A1, “METHOD FOR INDUCING GERMINATION OF SPORE FORMING BACTERIUM” (CALPIS CO., LTD., priority 2011, published 2014)
# What was measured:
# Format in all cases: cell-based
# [1] = system: Bacillus coagulans (NBRC 12583); test: Germination induction, change of turbidity (630 nm) of spore suspension; settings: 300 ppm, 37° C., 150 rpm
# Procedure: (§1) It is possible to determine whether spores have germinated, after measuring an OD 630 value (turbidity at 630 nm) of the liquid culture, based on decrease in the value (Literature: Microbiology, (1950), 4, 3, 330-338). Briefly, bacterial cells after culturing are washed with distilled water and diluted with distilled water to OD 630=1.0, which is then mixed with an equal volume of a germination induction solution, and the turbidity at 630 nm is measured by a UV spectrophotometer at room temperature.
# (§2) TS culture media (Difco, Trypticase Soy Broth) were inoculated respectively with 11 strains listed in Table 1 and cultured at 50° C. with respect to Geobacillus stearothermophilus NBRC13737 and Aeribacillus pallidus TK6004 (FERM BP-08597), and at 37° C. with respect to the other 9 strains, until respective colonies were established. Then with respect to each of 11 strains, a loop full of a single colony was scratched by a platinum loop and suspended in 500 μL of sterilized water. In 1000 g of water was dissolved 8.0 g of a nutrient agar culture medium (Difco, Nutrient Broth), followed by high pressure steam sterilization (121° C., 15 min) to prepare a plate medium. The nutrient agar culture medium was smeared with each 100 μL of the suspension and cultured at 37° C. for 3 days.
# (§3) Then, bacterial cells were suspended using a platinum loop in 500 μL of sterilized water, and the bacterial suspension was subjected to a heat shock at 65° C. for 35 min. Each 100 μL of the heat-shocked bacterial suspension and a not-heat-shocked bacterial suspension were smeared on the TS culture media respectively and cultured at 50° C. or 37° C. for 1 day. As the results of the cultures, colony formation was confirmed also with respect to the heat-shocked bacterial suspensions, to confirm that spores were formed for all of 11 strains. Further, since the bacteria were not stained by Gram staining, it was reconfirmed that spores were formed.
# (§4) After confirming the spore formation, the bacterial cells were collected by a bacteria spreader, suspended in 10 mL of sterilized distilled water, and then centrifuged (8340×g, 4° C., 15 min). The supernatant was removed and thereafter the bacterial cells were washed twice with 10 mL of sterilized water. After washing, the bacterial cells were suspended in 5 mL of sterilized water, and the suspension was filtrated by sterilized Kimwipes. The filtrate was centrifuged (8340×g, 4° C., 15 min) to remove the supernatant, and the rest was adjusted to the turbidity (at 630 nm) of 1.0 with sterilized water.
# (§5) After dissolving with stirring using a stirring rod with a propeller, filtration sterilization (0.45 μm filter) was conducted to prepare each 600 ppm-solution.
# (§6) Five hundred (500) μL of each solution and 500 μL of each bacterial spore suspension were mixed. […] Defining the time point of mixing as the reaction initiation (0 min), and continuing shaking (150 rpm) at 37° C., the turbidity (630 nm) was measured at 10, 20, 30, 40, 50, 60, 90, 120, and 180 min after the reaction initiation.
# (§7) Since the turbidity at 630 nm decreases by germination of spores, it has been known that the turbidity at 630 nm can be used to determine the germination rate.
# [2] = system: Bacillus subtilis C-3102 (FERM BP-1096); test: as above; settings: 300 ppm, 37° C., 150 rpm
# Procedure: as §1, §2, §3, §4, §5, §6, §7
# [3] = system: Aeribacillus pallidus TK6004 (FERM BP-08597); test: as above; settings: 300 ppm, 37° C., 150 rpm
# Procedure: as §1, §2, §3, §4, §5, §6, §7
# [4] = system: Bacillus subtilis sp spizizenii (NBRC 101239); test: as above; settings: 300 ppm, 37° C., 150 rpm
# Procedure: as §1, §2, §3, §4, §5, §6, §7
# [5] = system: Bacillus amyloliquefaciens (NBRC 3022); test: as above; settings: 300 ppm, 37° C., 150 rpm
# Procedure: as §1, §2, §3, §4, §5, §6, §7
# [6] = system: Bacillus licheniformis (NBRC 12195); test: as above; settings: 300 ppm, 37° C., 150 rpm
# Procedure: as §1, §2, §3, §4, §5, §6, §7
# [7] = system: Bacillus coagulans (NBRC 3887); test: as above; settings: 300 ppm, 37° C., 150 rpm
# Procedure: as §1, §2, §3, §4, §5, §6, §7
# [8] = system: Bacillus amyloliquefaciens (NBRC 3032); test: as above; settings: 300 ppm, 37° C., 150 rpm
# Procedure: as §1, §2, §3, §4, §5, §6, §7
# [9] = system: Geobacillus stearothermophilus (NBRC 13737); test: as above; settings: 300 ppm, 37° C., 150 rpm
# Procedure: as §1, §2, §3, §4, §5, §6, §7
# [10] = system: Bacillus licheniformis (NBRC 14206); test: as above; settings: 300 ppm, 37° C., 150 rpm
# Procedure: as §1, §2
# Then, bacterial cells were suspended using a platinum loop in 500 μL of sterilized water, and the bacterial suspension was subjected to a heat shock at 65° C. for 35 min. Each 100 μL of the heat-shocked bacterial suspension and a not-heat-shocked bacterial suspension were smeared on the TS culture media respectively and cultured at 50° C. or 37° C. for 1 day.
# as §4, §5, §6, §7
# [11] = system: Bacillus subtilis C-3102 (FERM BP-1096); test: Germination induction by ferulic acid, vanillic acid or p-coumaric acid at 300 ppm, turbidity change (Example 3); settings: for turbidity (630 nm): 37° C., 150 rpm
# Procedure: In each 500 mL of distilled water heated to 70° C. was added 0.3 g of ferulic acid, vanillic acid, or p-coumaric acid. After dissolving with stirring using a stirring rod with a propeller, filtration sterilization (0.45 μm filter) was conducted to prepare each 600 ppm-solution.
# Next, 500 μL aliquots of bacterial suspension of Bacillus subtilis C-3102 (FERM BP-1096) prepared by a similar method as in Example 1 were mixed with 500 μL of each of the ferulic acid, vanillic acid, and p-coumaric acid solutions, and the mixtures were adjusted to 300 ppm of ferulic acid, vanillic acid, or p-coumaric acid concentration. Defining the time point of mixing as the reaction initiation (0 min), and continuing shaking (150 rpm) at 37° C., the turbidity (630 nm) was measured at 10, 20, 30, 40, 50, 60, 90, 120, and 180 min after the reaction initiation.
# [12] = 0 min after reaction initiation
# [13] = 10 min after reaction initiation
# [14] = 20 min after reaction initiation
# [15] = 30 min after reaction initiation
# [16] = 40 min after reaction initiation
# [17] = 50 min after reaction initiation
# [18] = 60 min after reaction initiation
# [19] = 90 min after reaction initiation
# [20] = 120 min after reaction initiation
# [21] = 180 min after reaction initiation
compound,measurement,setting,value
"C[C@H](N)C(=O)O [L-Ala, L-alanine, reference compound]",turbidity (630 nm),[1]; [12],0.564
same,turbidity (630 nm),[1]; [13],0.559
same,turbidity (630 nm),[1]; [14],0.545
same,turbidity (630 nm),[1]; [15],0.515
same,turbidity (630 nm),[1]; [16],0.502
same,turbidity (630 nm),[1]; [17],0.498
same,turbidity (630 nm),[1]; [18],0.510
same,turbidity (630 nm),[1]; [19],0.510
same,turbidity (630 nm),[1]; [20],0.507
same,turbidity (630 nm),[1]; [21],0.491
same,turbidity (630 nm),[2]; [12],0.606
same,turbidity (630 nm),[2]; [13],0.607
same,turbidity (630 nm),[2]; [14],0.597
same,turbidity (630 nm),[2]; [15],0.597
same,turbidity (630 nm),[2]; [16],0.594
same,turbidity (630 nm),[2]; [17],0.590
same,turbidity (630 nm),[2]; [18],0.582
same,turbidity (630 nm),[2]; [19],0.584
same,turbidity (630 nm),[2]; [20],0.574
same,turbidity (630 nm),[2]; [21],0.578
same,turbidity (630 nm),[3]; [12],0.488
same,turbidity (630 nm),[3]; [13],0.470
same,turbidity (630 nm),[3]; [14],0.463
same,turbidity (630 nm),[3]; [15],0.457
same,turbidity (630 nm),[3]; [16],0.451
same,turbidity (630 nm),[3]; [17],0.445
same,turbidity (630 nm),[3]; [18],0.441
same,turbidity (630 nm),[3]; [19],0.416
same,turbidity (630 nm),[3]; [20],0.404
same,turbidity (630 nm),[3]; [21],0.370
same,turbidity (630 nm),[4]; [12],0.527
same,turbidity (630 nm),[4]; [13],0.520
same,turbidity (630 nm),[4]; [14],0.514
same,turbidity (630 nm),[4]; [15],0.501
same,turbidity (630 nm),[4]; [16],0.488
same,turbidity (630 nm),[4]; [17],0.475
same,turbidity (630 nm),[4]; [18],0.455
same,turbidity (630 nm),[4]; [19],0.409
same,turbidity (630 nm),[4]; [20],0.387
same,turbidity (630 nm),[4]; [21],0.366
same,turbidity (630 nm),[5]; [12],0.565
same,turbidity (630 nm),[5]; [13],0.505
same,turbidity (630 nm),[5]; [14],0.506
same,turbidity (630 nm),[5]; [15],0.461
same,turbidity (630 nm),[5]; [16],0.495
same,turbidity (630 nm),[5]; [17],0.504
same,turbidity (630 nm),[5]; [18],0.506
same,turbidity (630 nm),[5]; [19],0.490
same,turbidity (630 nm),[5]; [20],0.505
same,turbidity (630 nm),[5]; [21],0.493
same,turbidity (630 nm),[6]; [12],0.534
same,turbidity (630 nm),[6]; [13],0.526
same,turbidity (630 nm),[6]; [14],0.517
same,turbidity (630 nm),[6]; [15],0.510
same,turbidity (630 nm),[6]; [16],0.508
same,turbidity (630 nm),[6]; [17],0.503
same,turbidity (630 nm),[6]; [18],0.503
same,turbidity (630 nm),[6]; [19],0.493
same,turbidity (630 nm),[6]; [20],0.492
same,turbidity (630 nm),[6]; [21],0.498
same,turbidity (630 nm),[7]; [12],0.510
same,turbidity (630 nm),[7]; [13],0.508
same,turbidity (630 nm),[7]; [14],0.470
same,turbidity (630 nm),[7]; [15],0.515
same,turbidity (630 nm),[7]; [16],0.488
same,turbidity (630 nm),[7]; [17],0.500
same,turbidity (630 nm),[7]; [18],0.500
same,turbidity (630 nm),[7]; [19],0.472
same,turbidity (630 nm),[7]; [20],0.500
same,turbidity (630 nm),[7]; [21],0.490
same,turbidity (630 nm),[8]; [12],0.517
same,turbidity (630 nm),[8]; [13],0.418
same,turbidity (630 nm),[8]; [14],0.362
same,turbidity (630 nm),[8]; [15],0.347
same,turbidity (630 nm),[8]; [16],0.333
same,turbidity (630 nm),[8]; [17],0.315
same,turbidity (630 nm),[8]; [18],0.32
same,turbidity (630 nm),[8]; [19],0.298
same,turbidity (630 nm),[8]; [20],0.290
same,turbidity (630 nm),[8]; [21],0.274
same,turbidity (630 nm),[9]; [12],0.577
same,turbidity (630 nm),[9]; [13],0.573
same,turbidity (630 nm),[9]; [14],0.566
same,turbidity (630 nm),[9]; [15],0.565
same,turbidity (630 nm),[9]; [16],0.568
same,turbidity (630 nm),[9]; [17],0.561
same,turbidity (630 nm),[9]; [18],0.568
same,turbidity (630 nm),[9]; [19],0.565
same,turbidity (630 nm),[9]; [20],0.553
same,turbidity (630 nm),[9]; [21],0.538
same,turbidity (630 nm),[10]; [14],0.535
same,turbidity (630 nm),[10]; [15],0.502
same,turbidity (630 nm),[10]; [16],0.490
same,turbidity (630 nm),[10]; [17],0.482
same,turbidity (630 nm),[10]; [18],0.477
same,turbidity (630 nm),[10]; [19],0.470
same,turbidity (630 nm),[10]; [20],0.465
same,turbidity (630 nm),[10]; [21],0.468
"O=C(O)/C=C/c1ccc(O)cc1 [p-Coumaric acid, p-coumaric acid]",germination confirmed by turbidity decrease,[11],"decreased, thereby to confirm germination"
same,turbidity (630 nm),[11]; [12],0.545
same,turbidity (630 nm),[11]; [13],0.523
same,turbidity (630 nm),[11]; [14],0.506
same,turbidity (630 nm),[11]; [15],0.488
same,turbidity (630 nm),[11]; [16],0.475
same,turbidity (630 nm),[11]; [17],0.460
same,turbidity (630 nm),[11]; [18],0.420
same,turbidity (630 nm),[11]; [19],0.392
same,turbidity (630 nm),[11]; [20],0.360
same,turbidity (630 nm),[11]; [21],0.319
